The record followed here is patent publication EP3398599A1, “COMPOSITIONS AND METHODS FOR PROPHYLAXIS AND TREATMENT OF ADDICTIONS” (priority 2009, dated 2010).

Holding throughout (type): in vivo
One test relates to Long Evans rats. As to the kind of experiment: Yohimbine-induced reinstatement of nicotine seeking. The note with it: yohimbine 2.0 mg/kg/ml; p<0.001. As for the experimental part: Stress and anxiety are major factors in resuming nicotine use in former abstinent users. […] Briefly, following acquisition of a stable baseline of IV nicotine self-administration (30µg/0.1ml/infusion), male Long Evans rats (n=8) were subjected to an extinction period of 5 days.
Reinstatement experiments and relative drug treatments were performed every third day. Between reinstatements, extinction baseline was re-established.

The subject of test [1] is msP rats. In words: Yohimbine-induced (stress-induced) reinstatement of alcohol seeking. Particulars: naltrexone 0.25 and 1.0 mg/kg IP 1 hour before test.
Another test concerns human patients. As to the kind of experiment: Observational study of alcohol abuse in human patients (pioglitazone 30 mg/day or naltrexone 50 mg/day + psychotherapy). The note with it: for CDT: mean value of blood tests. The text has this:
Patients were instructed to record in a personal logbook the number of drinks per day and the time of the day drinks occurred. At the end of the study, the logbooks were returned to the clinical personnel who analyzed the data.
In addition, biochemical parameters to ascertain alcohol detoxification and to measure recovery of physiological functions (i.e., hepatic function) were monitored monthly. Hematological parameters measured included: mean corpuscular volume (MCV); gamma-GT; aspartate aminotransferase (AST); alanine aminotransferase (ALT); and carbohydrate-deficient transferring (CDT). MCV and CDT are biomarkers for ethanol consumption, and GGT, ALT and AST are biomarkers for hepatic functionality.
Data were analyzed by analysis of variance followed by Newman-Keuls post hoc tests when appropriate.

Test [2] has as its system msP rats. As to the kind of experiment: Cue-induced reinstatement of alcohol seeking. The note with it: naltrexone, both doses (0.25 and 1.0 mg/kg) one hour before test; p<0.01.
Test [3] relates to msP rats. As to the kind of experiment: Voluntary ethanol intake, subchronic (7 days) treatment, alcohol available 24 hours/day. Particulars: naltrexone […] IP alone or with pioglitazone 10.0 or 30.0 mg/kg OS, overall p<0.01. As for the experimental part: At the beginning of the experiments, msP rats were allowed free choice between water and 10% (v/v) alcohol 24 h/day for at least 15 days. The fluids were offered in graduated drinking tubes equipped with metallic drinking spouts. The position (to the right or left) of alcohol and water drinking tubes was changed daily to avoid the development of side preference. […] Alcohol, water and food intakes were measured.
Before starting the treatment, rats were trained to gavage administration procedures for three days, during which they received vehicle (distilled water).
(§1) Alcohol, water and food intakes were monitored at 2, 8 and 24 hours. Fluids and food intakes were monitored for three additional days after the end of the drug treatment period.
as §1

Entries after “also recorded” stand apart in the source; their conditions may differ.

For the compound `COC(=O)[C@@H]1[C@H]2C[C@H]3c4[nH]c5ccccc5c4CCN3C[C@@H]2CC[C@@H]1O` [yohimbine], in the test with Long Evans rats, the “reinstatement of responding (nicotine seeking) compared to extinction” value is reported as “significant reinstatement of responding”.
As for `O=C1CC[C@@]2(O)[C@H]3Cc4ccc(O)c5c4[C@@]2(CCN3CC2CC2)[C@H]1O5` [naltrexone], the “yohimbine-induced reinstatement of alcohol seeking” value with msP rats [1] is “did not significantly reduce the effect of yohimbine”. For the same compound, the “Depression Scale M.A.D.R.S (mean score values)” value in the test on human patients (T=0 (beginning of the treatment)) is reported as 19; in the test with human patients (T=1.1 (month 1, week 1)), 16; with human patients (T=1.2 (month 1, week 2)) it was 18. Further, in the test with human patients (first two weeks of treatment, P<0.05), the “effect on daily drinks, naltrexone vs pioglitazone” value is on record as “more effective than pioglitazone”. Also, the CDT with human patients (T0) was found to be 3.6; with human patients (T1= 4 weeks), 3.0; in the test with human patients (T2= 8 weeks), 2.5. Further, the “decrease in MCV and CDT” value in the test with human patients (naltrexone treated patients (NTX), two months) is reported as “to a lesser extent compared to the pioglitazone group”. Further, the “all the five biomarkers (MCV, GGT, ALT, AST, CDT): difference from controls (psychotherapy alone)” value with human patients (post hoc tests, P<0.001) is given as “statistical difference”. For the same compound, the “anxiety score: difference from controls” value in the test with human patients (post hoc tests, P<0.001) is reported as “statistically significant difference”. In the test with human patients (post hoc tests, P<0.001), the “obsessive compulsive score for alcohol (OCDS): decrease, difference from controls” value is “statistically significant difference”. The “depression score (MADRS): difference from controls” value with human patients (post hoc tests, P<0.001 for pioglitazone) was “not naltrexone”. The “hepatic parameters (GGT, ALT, AST)” value in the test on human patients (two months of treatment) is listed as “ameliorated”. Also, in the test with human patients (vs psychotherapy only), the “daily ethanol intake (number of daily drinks)” value is reported as “significantly reduced daily ethanol intake”. In addition, the “number of abstinence days” value in the test with human patients (vs psychotherapy only) is reported as “increased the number of abstinence days”. Further, the “conditioned (cue-induced) reinstatement of alcohol-seeking” value in the test with msP rats [2] was “significantly reduced reinstatement of ethanol seeking; also recorded: significantly reduced cue-induced reinstatement of alcohol-seeking”. Besides, the voluntary ethanol intake entry with msP rats [3] is recorded as “significantly reduced”.
